Experimental data taken from US6506766B1 (Abbott Laboratories, priority 1998, dated 2003).
Where two headings read alike, the source gives them in different places.

Assays:
[1] = target: T1, human progesterone receptor-A [PRA] isoform (Homo sapiens, UniProt P06401); experiment: Radioligand binding with human progesterone receptor cytosol ([3H]-progesterone competition); conditions: read-out: Ki (nM) PR
T1 construct: host or cells: insect SF21 cells (baculovirus)
T1 sequence (P06401 1-769 isoform P06401-2): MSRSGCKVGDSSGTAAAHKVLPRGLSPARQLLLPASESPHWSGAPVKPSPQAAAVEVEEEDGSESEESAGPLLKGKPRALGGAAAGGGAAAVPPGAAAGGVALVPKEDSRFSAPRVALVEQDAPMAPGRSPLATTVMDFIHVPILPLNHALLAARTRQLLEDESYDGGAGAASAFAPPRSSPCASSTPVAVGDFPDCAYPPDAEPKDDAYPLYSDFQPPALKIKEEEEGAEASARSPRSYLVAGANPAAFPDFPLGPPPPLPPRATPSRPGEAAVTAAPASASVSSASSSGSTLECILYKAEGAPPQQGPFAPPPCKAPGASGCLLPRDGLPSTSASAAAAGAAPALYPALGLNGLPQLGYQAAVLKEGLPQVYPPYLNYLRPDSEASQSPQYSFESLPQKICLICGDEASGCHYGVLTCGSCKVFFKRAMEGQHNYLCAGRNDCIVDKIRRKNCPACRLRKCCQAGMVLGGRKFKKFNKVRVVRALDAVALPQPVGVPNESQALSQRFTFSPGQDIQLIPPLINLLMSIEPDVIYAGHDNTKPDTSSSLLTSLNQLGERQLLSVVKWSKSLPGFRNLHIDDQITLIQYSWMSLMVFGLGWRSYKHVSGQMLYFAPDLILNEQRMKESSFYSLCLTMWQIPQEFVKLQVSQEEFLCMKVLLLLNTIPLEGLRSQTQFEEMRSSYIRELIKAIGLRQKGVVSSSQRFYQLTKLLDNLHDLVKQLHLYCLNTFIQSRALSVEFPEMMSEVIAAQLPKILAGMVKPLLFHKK

[2] = target: T2, human glucocorticoid receptor-α [GRX] isoform (Homo sapiens, UniProt P04150); experiment: Radioligand binding with human glucocorticoid receptor cytosol ([3H]-dexamethasone competition); conditions: read-out: Ki (nM) GR
T2 construct: host or cells: insect SF21 cells (baculovirus)
T2 sequence (P04150 1-777): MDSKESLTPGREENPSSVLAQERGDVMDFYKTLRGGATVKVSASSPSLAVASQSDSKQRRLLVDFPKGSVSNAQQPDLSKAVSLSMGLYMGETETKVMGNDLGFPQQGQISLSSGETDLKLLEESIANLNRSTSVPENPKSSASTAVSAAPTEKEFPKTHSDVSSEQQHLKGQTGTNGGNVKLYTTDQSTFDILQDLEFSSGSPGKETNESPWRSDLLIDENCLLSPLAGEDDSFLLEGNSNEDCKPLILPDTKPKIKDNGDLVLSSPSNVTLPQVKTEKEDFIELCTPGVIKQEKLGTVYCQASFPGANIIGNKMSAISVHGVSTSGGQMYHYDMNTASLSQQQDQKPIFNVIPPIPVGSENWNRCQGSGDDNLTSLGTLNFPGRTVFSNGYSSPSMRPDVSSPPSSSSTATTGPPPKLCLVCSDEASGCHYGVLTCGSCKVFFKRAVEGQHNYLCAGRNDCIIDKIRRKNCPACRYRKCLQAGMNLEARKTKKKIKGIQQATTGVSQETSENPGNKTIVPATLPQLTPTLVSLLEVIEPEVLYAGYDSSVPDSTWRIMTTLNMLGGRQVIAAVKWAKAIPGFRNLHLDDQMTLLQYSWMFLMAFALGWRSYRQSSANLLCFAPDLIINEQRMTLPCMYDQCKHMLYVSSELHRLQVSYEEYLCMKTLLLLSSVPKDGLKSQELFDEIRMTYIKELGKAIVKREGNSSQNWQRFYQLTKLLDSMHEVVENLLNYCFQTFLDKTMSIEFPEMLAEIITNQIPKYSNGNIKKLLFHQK

[3] = PRA cytosol expressed in insect SF21 cells, [3H]Prog ~0.8 nM, 4° C. overnight, Ki by Cheng-Prusoff, KL ~4.5 nM
[4] = GRX cytosol expressed in insect SF21 cells, [3H]-Dex ~0.9 nM, 4° C. overnight, Ki by Cheng-Prusoff, KL ~[…]

| Ki [1, 3] | Ki [2, 4] | Structure (SMILES) | Ki [1] | Ki [2] |
| --- | --- | --- | --- | --- |
| 14100 nM | 112 nM | COc1c(O)ccc2c1-c1ccc3c(c1C(c1nccs1)O2)C(C)=CC(C)(C)N3 (centres unmarked) [Example 408, 2,5-Dihydro-9-hydroxy-10-methoxy-2,2,4-trimethyl-5-(1-thiazol-2-yl)-1H-[1]benzopyrano[3,4-f]quinoline] | – | – |
| 42 nM | 2.7 nM | CC1=CC(C)(C)Nc2ccc3c(c21)C(CC(C)C)Oc1ccc(O)c(Cl)c1-3 (centres unmarked) [Example 409, 2,5-Dihydro-9-hydroxy-10-chloro-2,2,4-trimethyl-5-(2-methylpropyl)-1H-[1]benzopyrano[3,4-f]quinoline] | – | – |
| 25.7 nM | 1.1 nM | C=CCC1Oc2ccc(CO)c(Cl)c2-c2ccc3c(c21)C(C)=CC(C)(C)N3 (centres unmarked) [Example 410, 2,5-Dihydro-9-hydroxymethyl-10-chloro-2,2,4-trimethyl-5-allyl-1H-[1]benzopyrano[3,4-f]quinoline] | – | – |
| 222 nM | 9 nM | COc1c(O)ccc2c1-c1ccc3c(c1C(=Cc1cccc(F)c1)O2)C(C)=CC(C)(C)N3 [Example 412, 9-Hydroxy-10-methoxy-5-([3-fluorophenyl]methylene)-2,2,4-trimethyl-1H-2,5-dihydro-[1]benzopyrano[3,4-f]quinoline] | – | – |
| 60.8 nM | 0.22 nM | CC1=CC(C)(C)Nc2ccc3c(c21)C(=Cc1ccccn1)Oc1ccc(O)c(Cl)c1-3 [Example 413, 9-Hydroxy-10-chloro-5-([2-pyridyl]methylene)-2,2,4-trimethyl-1H-2,5-dihydro-[1]benzopyrano[3,4-f]quinoline] | – | – |
| 394 nM | 3.1 nM | COc1c(O)ccc2c1-c1ccc3c(c1C(c1cc(Cl)cc(Cl)c1)O2)C(C)=CC(C)(C)N3 (centres unmarked) [Example 416, 2,5-Dihydro-9-hydroxy-10-methoxy-2,2,4-trimethyl-5-(3,5-dichlorophenyl)-1H-[1]benzopyrano[3,4-f]quinoline] | – | – |
| 10.5 nM | 3 nM | CC1=C[C@@H]([C@@H]2Oc3ccc(O)c(Cl)c3-c3ccc4c(c32)C(C)=CC(C)(C)N4)CCC1 [Example 417, (−)(5S,3′S)2,5-Dihydro-9-hydroxy-10-chloro-2,2,4-trimethyl-5-(1-methylcyclohexen-3-yl)-1H-[1]benzopyrano[3,4-f]quinoline] | – | – |
| 2.1 nM | 1.4 nM | CC1=C[C@H]([C@@H]2Oc3ccc(O)c(Cl)c3-c3ccc4c(c32)C(C)=CC(C)(C)N4)CCC1 [Example 418] | – | – |
| 286 nM | 56.9 nM | CC1=C[C@@H]([C@H]2Oc3ccc(O)c(Cl)c3-c3ccc4c(c32)C(C)=CC(C)(C)N4)CCC1 [Example 419, (+)(5R,3′S)2,5-Dihydro-9-hydroxy-10-chloro-2,2,4-trimethyl-5-(1-methylcyclohexen-3-yl)-1H-[1]benzopyrano[3,4-f]quinoline] | – | – |
| 2400 nM | 125 nM | CC1=C[C@H]([C@H]2Oc3ccc(O)c(Cl)c3-c3ccc4c(c32)C(C)=CC(C)(C)N4)CCC1 [Example 420] | – | – |
| 8180 nM | 0.67 nM | COc1c(OC(=O)CCC(=O)N(C)C)ccc2c1-c1ccc3c(c1C(C(C)C)O2)C(C)=CC(C)(C)N3 (centres unmarked) [Example 423, 2,5-Dihydro-9-(4-N,N-dimethylamino-4-oxo-butanoyloxy)-10-methoxy-2,2,4-trimethyl-5-(1-methylethyl)-1H-[1]benzopyrano[3,4-f]quinoline] | – | – |
| 1950 nM | 0.84 nM | COc1c(OC(=O)CCC(=O)N(C)C)ccc2c1-c1ccc3c(c1C(Cc1ccccc1)O2)C(C)=CC(C)(C)N3 (centres unmarked) [Example 424, 2,5-Dihydro-9-(4-N,N-dimethylamino-4-oxo-butanoyloxy)-10-methoxy-5-(phenylmethyl)-2,2,4-trimethyl-1H-[1]benzopyrano[3,4-f]quinoline] | – | – |
| 3940 nM | 0.35 nM | COc1c(OC(=O)CCC(=O)N(C)C)ccc2c1-c1ccc3c(c1C(c1cccs1)O2)C(C)=CC(C)(C)N3 (centres unmarked) [Example 425, 2,5-Dihydro-9-(4-N,N-dimethylamino-4-oxo-butanoyloxy)-10-methoxy-2,2,4-trimethyl-5-(2-thienyl)-1H-[1]benzopyrano[3,4-f]quinoline] | – | – |
| 110 nM | 0.85 nM | C=CCC1Oc2ccc(OC(=O)CCCN(C)C)c(OC)c2-c2ccc3c(c21)C(C)=CC(C)(C)N3 (centres unmarked) [Example 426, 2,5-Dihydro-9-(4-N,N-dimethylaminobutanoyloxy)-10-methoxy-2,2,4-trimethyl-5-(2-propenyl)-1H-[1]benzopyrano[3,4-f]quinoline] | – | – |
| – | – | C=CCC1Oc2ccc(OC(=O)NCC(=O)OCC)c(OC)c2-c2ccc3c(c21)C(C)=CC(C)(C)N3 (centres unmarked) [Example 427, 9-(2-Ethoxy-2-oxo-ethylaminocarbonyl)-oxy-10-methoxy-5-(3-propenyl)-2,2,4-trimethyl-1H-2,5-dihydro-[1]benzopyrano[3,4-f]quinoline] | 2200 nM | 7.8 nM |
| 281 nM | 4.8 nM | COc1c(O)ccc2c1-c1ccc3c(c1C(=Cc1ccccc1)O2)C(C)=CC(C)(C)N3 [Example 430, 9-Hydroxy-10-methoxy-5-(phenylmethylene)-2,2,4-trimethyl-1H-2,5-dihydro-[1]benzopyrano[3,4-f]quinoline] | – | – |
| ≥ 10000 nM | 113 nM | C=CCC1Oc2ccc(OC(=S)N(C)C)c(OC)c2-c2ccc3c(c21)C(C)=CC(C)(C)N3 (centres unmarked) [Example 431, 9-(Dimethylaminothiocarbonyl)-oxy-10-methoxy-5-(3-propenyl)-2,2,4-trimethyl-1H-2,5-dihydro-[1]benzopyrano[3,4-f]quinoline] | – | – |
| 734 nM | 120 nM | CC1=CC(C)(C)Nc2ccc3c(c21)C(c1cc(F)c(F)c(F)c1)Oc1ccc(O)c(Cl)c1-3 (centres unmarked) [Example 435, 2,5-Dihydro-9-hydroxy-10-chloro-2,2,4-trimethyl-5-(3,4,5-trifluorophenyl)-1H-[1]benzopyrano[3,4-f]quinoline] | – | – |
| 5920 nM | 18.8 nM | C=CCC1Oc2ccc(OCSC)c(OC)c2-c2ccc3c(c21)C(C)=CC(C)(C)N3 (centres unmarked) [Example 436, 2,5-Dihydro-9-methylthiomethoxy-10-methoxy-2,2,4-trimethyl-5-allyl-1H-[1]benzopyrano[3,4-f]quinoline] | – | – |
| 449 nM | 0.97 nM | C=CCC1Oc2ccc(OC(=O)CCCC(=O)N(CC)CC)c(OC)c2-c2ccc3c(c21)C(C)=CC(C)(C)N3 (centres unmarked) [Example 437] | – | – |
| 129 nM | 0.89 nM | C=CCC1Oc2ccc(OC(=O)CCCC(=O)N(C)C)c(OC)c2-c2ccc3c(c21)C(C)=CC(C)(C)N3 (centres unmarked) [Example 438] | – | – |
| 202 nM | 1.2 nM | C=CCC1Oc2ccc(OC(=O)CCCC(=O)N3CCCCC3)c(OC)c2-c2ccc3c(c21)C(C)=CC(C)(C)N3 (centres unmarked) [Example 439] | – | – |
| 390 nM | 0.7 nM | C=CCC1Oc2ccc(OC(=O)CCCC(=O)N3CCOCC3)c(OC)c2-c2ccc3c(c21)C(C)=CC(C)(C)N3 (centres unmarked) [Example 440] | – | – |
| 328 nM | 0.42 nM | COc1c(OC(=O)CCC(=O)N(C)C)ccc2c1-c1ccc3c(c1[C@H]([C@@H]1C=CCC1)O2)C(C)=CC(C)(C)N3 [Example 441, (−)2,5-Dihydro-9-(4-N,N-dimethylamino-4-oxo-butanoyloxy)-10-methoxy-2,2,4-trimethyl-5(S)-(3(S)-1-cyclopenten-3-yl)-1H-[1]benzopyrano[3,4-f]quinoline] | – | – |
| – | – | C=CCNC(=O)Oc1ccc2c(c1OC)-c1ccc3c(c1C(CC=C)O2)C(C)=CC(C)(C)N3 (centres unmarked) [Example 442, 10-Methoxy-9-(allylaminocarbonyl)oxy-5-(3-propenyl)-2,2,4-trimethyl-1H-2,5-dihydro-[1]benzopyrano[3,4-f]quinoline] | 8860 nM | 9.1 nM |
